Measurements reported in patent publication US20230330067A1, “NOVEL THIOHYDANTOIN DERIVATIVES AND USES THEREOF” (CELROS BIOTECH, priority 2020, published 2023).

Experiments:
human Nox2 = molecular target: T1, human Nox2 (Homo sapiens, UniProt P04839); assay: Lucigenin chemiluminescence assay, human Nox2; format: biochemical; conditions: Drosophila membranes expressing hNox2; average of three assays
T1 construct: made in house; host or cells: transgenic Drosophila (UAS-hNox2/UAS-dDuox-RNAi; Da-GAL4/+), membranes from fly homogenate
T1 sequence (P04839 2-570 limits assumed): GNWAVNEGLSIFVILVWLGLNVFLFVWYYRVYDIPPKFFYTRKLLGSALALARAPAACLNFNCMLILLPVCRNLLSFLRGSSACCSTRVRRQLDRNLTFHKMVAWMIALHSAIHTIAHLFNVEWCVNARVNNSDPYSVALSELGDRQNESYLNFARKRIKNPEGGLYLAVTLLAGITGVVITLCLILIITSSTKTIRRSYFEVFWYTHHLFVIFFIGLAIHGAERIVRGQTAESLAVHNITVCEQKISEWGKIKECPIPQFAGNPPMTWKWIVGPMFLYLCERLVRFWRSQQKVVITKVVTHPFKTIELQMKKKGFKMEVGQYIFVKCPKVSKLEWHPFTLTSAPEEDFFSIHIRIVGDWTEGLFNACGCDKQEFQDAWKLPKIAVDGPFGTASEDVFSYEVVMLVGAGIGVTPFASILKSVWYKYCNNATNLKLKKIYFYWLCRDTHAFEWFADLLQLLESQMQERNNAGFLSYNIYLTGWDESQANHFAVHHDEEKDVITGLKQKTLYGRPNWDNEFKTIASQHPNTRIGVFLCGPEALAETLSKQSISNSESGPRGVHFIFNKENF
Source text: (§1) Human Nox isozymes were provided from transgenic flies expressing human Nox isozymes under the daughterless (Da)-GAL4 promoter. The genotype of each fly line is shown below. • 1) Human Nox1: UAS-hNox1/UAS-dDuox-RNAi; Da-GAL4/+ • 2) Human Nox2: UAS-hNox2/UAS-dDuox-RNAi; Da-GAL4/+ • 3) Human Nox4: UAS-hNox4/UAS-dDuox-RNAi; Da-GAL4/+
(§2) Transgenic flies were homogenized with PBS containing protease inhibitors (Aprotinin and Leupeptin) to obtain Drosophila membranes of each Nox isozyme. The membranes were incubated with compounds (100 μM, 10 μM, 1 μM, 0.1 μM, 0.01 μM, 0.001 μM, and 0 μM) for 10 min on a shaker. After that, a mixture of 500 μM NADPH (beta-nicotinamide adenine dinucleotide 2′-phosphate reduced tetrasodium salt hydrate; Sigma-Aldrich) and 400 μM lucigenin (N,N′-dimethyl-9,9′-biacridinium dinitrate; Sigma-Aldrich) in 1X HEPES (4-(2-hydroxyethyl)-1-piperazineethanesulfonic acid) buffer was added to the membrane. Lucigenin chemiluminescence was detected at 1 minute intervals for 10 min using a multimode microplate reader (SpectraMax iD3, Molecular Devices). IC50 values were calculated with Graph-Pad Prism 5 (GraphPad Software).
(§3) Lucigenin chemiluminescence assays were performed with Drosophila membranes expressing hNox1, hNox2 and hNox4. The assay was repeated three times and the average of the IC50 values was determined.

human Nox4 = molecular target: T2, human Nox4 (Homo sapiens, UniProt Q9NPH5); assay: Lucigenin chemiluminescence assay, human Nox4; format: biochemical; conditions: Drosophila membranes expressing hNox4; average of three assays
T2 construct: made in house; host or cells: transgenic Drosophila (UAS-hNox4/UAS-dDuox-RNAi; Da-GAL4/+), membranes from fly homogenate
T2 sequence (Q9NPH5 1-578): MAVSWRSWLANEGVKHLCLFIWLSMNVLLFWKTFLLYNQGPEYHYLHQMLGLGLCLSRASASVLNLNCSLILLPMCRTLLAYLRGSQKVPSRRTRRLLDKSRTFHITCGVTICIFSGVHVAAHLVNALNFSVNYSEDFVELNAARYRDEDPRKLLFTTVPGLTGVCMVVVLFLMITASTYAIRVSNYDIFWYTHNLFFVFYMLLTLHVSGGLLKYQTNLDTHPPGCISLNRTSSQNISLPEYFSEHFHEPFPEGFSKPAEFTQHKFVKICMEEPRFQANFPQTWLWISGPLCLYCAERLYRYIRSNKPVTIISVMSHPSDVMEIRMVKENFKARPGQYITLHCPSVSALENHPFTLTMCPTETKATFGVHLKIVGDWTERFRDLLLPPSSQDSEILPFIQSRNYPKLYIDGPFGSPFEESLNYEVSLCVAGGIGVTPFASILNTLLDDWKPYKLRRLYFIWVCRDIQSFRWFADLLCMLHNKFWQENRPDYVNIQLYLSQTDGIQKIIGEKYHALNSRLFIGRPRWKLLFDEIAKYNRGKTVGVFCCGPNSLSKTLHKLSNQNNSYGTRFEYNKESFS
Source text: as §1, §2, §3

[1] = test system: PFF-induced Parkinson's disease; assay: PFF-induced Parkinson's disease mice; format: in vivo, C57BL/6 mice; conditions: 10 mg/kg intraperitoneal daily for 3 months
Description: In order to develop preformed fibrils (PFF)-induced Parkinson's disease, 8-12 week old C57BL/6 mice were stereotaxically inoculated with 5 μg of PFF into the right dorsal striatum (AP+0.2 mm, […], DV 2.6 mm). Five months post single inoculation of PFF, animals were intraperitoneally injected with the compound of Example 2 at 10 mg/kg daily for 3 months. […] The maximum force of the mouse forelimb was recorded with a grip strength meter. The single inoculation of PFF impaired the grip strength of the forelimb.

human Nox1 = molecular target: T3, human Nox1 (Homo sapiens, UniProt Q9Y5S8); assay: Lucigenin chemiluminescence assay, human Nox1; format: biochemical; conditions: Drosophila membranes expressing hNox1; average of three assays
T3 construct: made in house; host or cells: transgenic Drosophila (UAS-hNox1/UAS-dDuox-RNAi; Da-GAL4/+), membranes from fly homogenate
T3 sequence (Q9Y5S8 1-564): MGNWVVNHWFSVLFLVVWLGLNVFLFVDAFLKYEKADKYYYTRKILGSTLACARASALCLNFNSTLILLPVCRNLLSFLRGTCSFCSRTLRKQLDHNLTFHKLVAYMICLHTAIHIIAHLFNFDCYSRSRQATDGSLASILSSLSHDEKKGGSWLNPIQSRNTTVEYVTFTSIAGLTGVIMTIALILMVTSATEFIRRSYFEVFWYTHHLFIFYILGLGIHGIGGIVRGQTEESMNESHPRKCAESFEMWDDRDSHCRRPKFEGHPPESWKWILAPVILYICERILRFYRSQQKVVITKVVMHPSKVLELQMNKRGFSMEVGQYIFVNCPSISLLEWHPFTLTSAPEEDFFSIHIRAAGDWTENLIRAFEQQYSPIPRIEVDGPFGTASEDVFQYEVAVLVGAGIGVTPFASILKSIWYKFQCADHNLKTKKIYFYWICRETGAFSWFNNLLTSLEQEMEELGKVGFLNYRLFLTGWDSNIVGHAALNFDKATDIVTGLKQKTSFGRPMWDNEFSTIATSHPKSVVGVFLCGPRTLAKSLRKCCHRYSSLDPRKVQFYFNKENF
Source text: as §1, §2, §3

BV2 cells = assay: Nox inhibitory effect in BV2 cells (LPS-induced ROS generation, lucigenin chemiluminescence); format: cell-based; conditions: BV2 cells pre-treated 30 minutes, 0-10000 nM, then LPS 200 ng/ml; FIG. 3
Description: BV2 cells were washed with Hank's balanced salt solution (HBSS) and incubated in HBSS at 37° C. for 30 minutes. Then, the cells were treated with the compound (compound of Example 1 or compound of Example 2) at various concentrations (0 nM, 1 nM, 10 nM, 100 nM, 1000 nM, and 10000 nM). After 30 minutes, 200 ng/ml of lipopolysaccharide (LPS) and 200 μM of lucigenin were added to the cells. Lucigenin chemiluminescence was detected at 10 second intervals for 15 minutes using a luminometer (GLOMA, Promega).
Specifically, BV2 cells were pre-treated with Compound (A) of Example 1 or Compound (B) of Example 2 for 30 minutes and generation of reactive oxygen species (ROS) was detected after treatment with LPS (200 ng/ml). Data are expressed as mean ±SD (N=3).

SMILES	IC50 (human Nox2) [µM]	IC50 (human Nox4) [µM]	IC50 (human Nox1) [µM]	amount of α-synuclein in the hippocampus (HP CA1, HP CA3) ([1]; five months post PFF inoculation, FIG. 11)	astrocyte pathology (GFAP immuno-positive astrocytes) in the prefrontal cortex (Pfcx) ([1]; FIG. 12)	microglia pathology (Iba1 immunopositive activated microglia) in Pfcx and HP CA3 ([1]; FIG. 13)	neuromuscular function (forelimb grip strength) ([1]; FIG. 14)	generation of reactive oxygen species (ROS) (BV2 cells)
COc1cc(N(C)CCO)ccc1/C=C1\C(=O)N(C2CCCCC2)C(=S)N1C [Example 3, (E)-3-cyclohexyl-5-(4-((2-hydroxyethyl)(methyl)amino)-2-methoxybenzylidene)-1-methyl-2-thioxoimidazolidin-4-one]	1.58	1.72						
CN1C(=S)N(C2CCCCC2)C(=O)/C1=C\c1ccc(N(C)CCO)cc1O [Example 4, (E)-3-cyclohexyl-5-(2-hydroxy-4-((2-hydroxyethyl)(methyl)amino)benzylidene)-1-methyl-2-thioxoimidazolidin-4-one]	0.52	1.4						
COc1cc(N(C)CCCO)ccc1/C=C1\C(=O)N(Cc2ccccc2)C(=S)N1C [Example 8, (E)-3-benzyl-5-(4-((3-hydroxypropyl)(methyl)amino)-2-methoxybenzylidene)-1-methyl-2-thioxoimidazolidin-4-one]	1.9	0.761						

Now from value to compound, other results behind:

IC50 (human Nox2) [µM]	IC50 (human Nox4) [µM]	IC50 (human Nox1) [µM]	SMILES	amount of α-synuclein in the hippocampus (HP CA1, HP CA3) ([1]; five months post PFF inoculation, FIG. 11)	astrocyte pathology (GFAP immuno-positive astrocytes) in the prefrontal cortex (Pfcx) ([1]; FIG. 12)	microglia pathology (Iba1 immunopositive activated microglia) in Pfcx and HP CA3 ([1]; FIG. 13)	neuromuscular function (forelimb grip strength) ([1]; FIG. 14)	generation of reactive oxygen species (ROS) (BV2 cells)
1.84	1.72	1.49	CC(C)CN1C(=O)C(=Cc2ccc(N(C)CCO)cc2)N(C)C1=S (mixture of isomers) [Example 2, 5-(4-((2-hydroxyethyl)(methyl)amino)benzylidene)-3-isobutyl-1-methyl-2-thioxoimidazolidin-4-one]	significantly decreased	reduced GFAP immuno-positive astrocytes	reduced Ibal immunopositive activated microglia	improved the grip strength	significant inhibition of ROS generation
1.35	0.907		CN1C(=S)N(Cc2ccccc2)C(=O)/C1=C\c1ccc(N(C)CCCO)cc1 [Example 5, (E)-3-benzyl-5-(4-((3-hydroxypropyl)(methyl)amino)benzylidene)-1-methyl-2-thioxoimidazolidin-4-one]					
1.96	1.8		CN1C(=S)N(CCc2ccccc2)C(=O)/C1=C\c1ccc(N(C)CCO)cc1 [Example 6, (E)-5-(4-((2-hydroxyethyl)(methyl)amino)benzylidene)-1-methyl-3-phenethyl-2-thioxoimidazolidin-4-one]					
0.773	0.665		CN1C(=S)N(Cc2ccccc2)C(=O)/C1=C\c1ccc(N(C)CCO)cc1O [Example 7, (E)-3-benzyl-5-(2-hydroxy-4-((2-hydroxyethyl)(methyl)amino)benzylidene)-1-methyl-2-thioxoimidazolidin-4-one]					
